# Measured values from patent US20260124184A1, “ONCE DAILY ALDOSTERONE SYNTHASE INHIBITOR (R)-(+)-5-(P-CYANOPHENYL)-5,6,7,8-TETRAHYDROIMIDAZO[L,5-A]PYRIDINE” (priority 2022, published 2026).
# Read-outs that look alike come from different tables or passages of the source.
# What was measured:
# [1] = system: patients with primary aldosteronism
# Procedure: (§1) A double-blind, randomized, Phase 2 trial was conducted between November 2019 and June 2022 at 11 centres in Italy, Switzerland and the Netherlands (NCT04007406). […] Patients requiring fixed-dose antihypertensive therapy continued treatment throughout the study; steroid therapies, β-adrenergic and renin-angiotensin-aldosterone system blockers were not permitted. At 14-day intervals, office blood pressures were recorded and blood samples were taken for measurement of steroid and peptide hormones and electrolytes at a central laboratory.
# A centrally calibrated and validated device (Spacelab Healthcare) was used; the device was fitted at the hospital outpatient department by medically qualified staff on day −1 and day 55 prior to supervised drug intake by the patient. The light digital monitor with convenient carry pouches takes the blood pressure reading at regular intervals by inflating and subsequently deflating customized cuffs placed around the non-dominant upper arm for 24-hour recording of about 70 readings. Patients followed their regular routines yet refrained from exercising or taking a bath or shower. In addition, to assure proper measurements, the patient was asked to sit down prior to reading, keep the cuff at the same level as the heart and rest the arm steady. The patient was also asked to keep a diary on activities, meals and sleep to document what he/she was doing just before the reading was taken. At the end of the 24-hour period, the patient was able to remove the monitor and cuff, shower or bathe and return the device to the Investigator at the clinic. The machine stored all readings as source data that were uploaded in the eCRF.
# For all efficacy endpoints, changes from baseline were calculated from linear models and accompanied by 95% confidence intervals and p values. Log-transformed values were used for changes in ARR. The full analysis set (FAS) and safety set were defined as all randomized patients who received at least one dose of study drug.
# [2] = system: patients with primary aldosteronism; remark: listed apart in the source
# Procedure: as §1
# [3] = 4 mg once daily, n=10, Day 1 (baseline)
# [4] = 8 mg once daily, n=12, Day 1 (baseline)
# [5] = 12 mg once daily, n=13, Day 1 (baseline)
# [6] = all doses combined, n=35, Day 1 (baseline)
# [7] = all doses combined, n=35, Day 56
# [8] = 4 mg once daily, n=10, Day 70 (after placebo withdrawal)
# [9] = 8 mg once daily, n=11, Day 1 (baseline)
# [10] = 8 mg once daily, n=11, Day 70 (after placebo withdrawal)
substance,measurement,setting,value
"(R)-(+)-5-(p-cyanophenyl)-5,6,7,8-tetrahydroimidazolium[1,5-a]pyridine dihydrogen phosphate [dexfadrostat phosphate]","change in 24-h aSBP from baseline to Day 56, mean","[1]; 4 mg once daily, n=10",−8.10 mmHg
same,"change in 24-h aSBP from baseline to Day 56, median","[1]; 4 mg once daily, n=10",−8.17 mmHg
same,"24-h aSBP, mean",[1]; [3],136.84 mmHg
same,"24-h aSBP, median",[1]; [3],138.38 mmHg
same,"24-h aSBP, mean","[1]; 4 mg once daily, n=10, Day 56",128.74 mmHg
same,"24-h aSBP, median","[1]; 4 mg once daily, n=10, Day 56",129.43 mmHg
same,"change in 24-h aSBP from baseline to Day 56, mean","[1]; 8 mg once daily, n=12",−13.95 mmHg
same,"change in 24-h aSBP from baseline to Day 56, median","[1]; 8 mg once daily, n=12",−13.33 mmHg
same,"24-h aSBP, mean",[1]; [4],144.88 mmHg
same,"24-h aSBP, median",[1]; [4],144.76 mmHg
same,"24-h aSBP, mean","[1]; 8 mg once daily, n=12, Day 56",130.93 mmHg
same,"24-h aSBP, median","[1]; 8 mg once daily, n=12, Day 56",129.43 mmHg
same,"change in 24-h aSBP from baseline to Day 56, mean","[1]; 12 mg once daily, n=13",−9.81 mmHg
same,"change in 24-h aSBP from baseline to Day 56, median","[1]; 12 mg once daily, n=13",−12.43 mmHg
same,"24-h aSBP, mean",[1]; [5],144.96 mmHg
same,"24-h aSBP, median",[1]; [5],146.87 mmHg
same,"24-h aSBP, mean","[1]; 12 mg once daily, n=13, Day 56",135.15 mmHg
same,"24-h aSBP, median","[1]; 12 mg once daily, n=13, Day 56",130.82 mmHg
same,decrease in mean 24-h aSBP from baseline to day 56,"[1]; all dose groups combined, p<0.0001",10.7 mmHg
same,"change in aSBP from baseline to Day 56, mean","[1]; all doses combined, n=35",−10.74 mmHg
same,"change in aSBP from baseline to Day 56, median","[1]; all doses combined, n=35",−12.23 mmHg
same,"24-hour ambulatory SBP (aSBP), mean",[1]; [6],142.62 mmHg
same,"24-hour ambulatory SBP (aSBP), median",[1]; [6],143.4 mmHg
same,"24-hour ambulatory SBP (aSBP), mean",[1]; [7],131.87 mmHg
same,"24-hour ambulatory SBP (aSBP), median",[1]; [7],130.41 mmHg
same,LSM change in 24-hour aSBP from baseline,"[1]; all patients, Day 1 to Day 56, FIG. 2B, p<0.0001",−10.7 mmHg
same,effect on 24-hour aSBP,"[1]; each dose arm, baseline to day 56",significant reduction (p<0.001) in 24-hour aSBP
same,"plasma potassium, mean",[2]; [3],3.36 nmol/L
same,"plasma potassium, median",[2]; [3],3.35 nmol/L
same,"plasma potassium, mean","[2]; 4 mg once daily, n=10, Day 14",4.27 nmol/L
same,"plasma potassium, median","[2]; 4 mg once daily, n=10, Day 14",4.35 nmol/L
same,"plasma potassium, mean","[2]; 4 mg once daily, n=10, Day 28",3.85 nmol/L
same,"plasma potassium, median","[2]; 4 mg once daily, n=10, Day 28",3.85 nmol/L
same,"plasma potassium, mean","[2]; 4 mg once daily, n=10, Day 42",4.07 nmol/L
same,"plasma potassium, median","[2]; 4 mg once daily, n=10, Day 42",4.15 nmol/L
same,"plasma potassium, mean","[2]; 4 mg once daily, n=10, Day 56",4.10 nmol/L
same,"plasma potassium, median","[2]; 4 mg once daily, n=10, Day 56",4.20 nmol/L
same,"plasma potassium, mean",[2]; [8],3.58 nmol/L
same,"plasma potassium, median",[2]; [8],3.60 nmol/L
same,"plasma potassium, mean",[2]; [9],3.55 nmol/L
same,"plasma potassium, median",[2]; [9],3.50 nmol/L
same,"plasma potassium, mean","[2]; 8 mg once daily, n=11, Day 14",4.32 nmol/L
same,"plasma potassium, median","[2]; 8 mg once daily, n=11, Day 14",4.30 nmol/L
same,"plasma potassium, mean","[2]; 8 mg once daily, n=11, Day 28",4.04 nmol/L
same,"plasma potassium, median","[2]; 8 mg once daily, n=11, Day 28",4.00 nmol/L
same,"plasma potassium, mean","[2]; 8 mg once daily, n=11, Day 42",3.99 nmol/L
same,"plasma potassium, median","[2]; 8 mg once daily, n=11, Day 42",3.90 nmol/L
same,"plasma potassium, mean","[2]; 8 mg once daily, n=11, Day 56",4.10 nmol/L
same,"plasma potassium, median","[2]; 8 mg once daily, n=11, Day 56",4.10 nmol/L
same,"plasma potassium, mean",[2]; [10],3.76 nmol/L
same,"plasma potassium, median",[2]; [10],3.80 nmol/L
same,plasma potassium upon drug withdrawal,"[2]; Day 70, after 14-day placebo withdrawal",potassium values returned towards baseline levels
same,"plasma potassium concentration, mean","[2]; baseline potassium <3.6 mmol/L, 4 mg QD, Day 1 (baseline)",3.1 mmol/L
